Experimental data reported in ChEMBL document CHEMBL5584283, “Evaluation of Antibacterial Functionalized Dihydropyrimidine Photoaffinity Probes Toward Mechanism of Action Studies” (ACS Med Chem Lett, 2024).
Values after ≈ are worked out from the molar mass of the structure shown.

Columns and labels:
Staphylococcus aureus [1] = experiment: Antibacterial activity against Staphylococcus aureus ATCC 12600 assessed as reduction in bacterial growth measured after 18 hrs by two-fold serial dilution method; type: functional
Staphylococcus aureus [2] = experiment: Antibacterial activity against Staphylococcus aureus ATCC 12600 assessed as partial growth inhibition at high concentration measured after 18 hrs by two-fold serial dilution method relative to control; type: functional
Staphylococcus aureus [3] = experiment: Antibacterial activity against Staphylococcus aureus ATCC 43300 assessed as reduction in bacterial growth measured after 18 hrs by two-fold serial dilution method; type: functional
Staphylococcus aureus [4] = experiment: Antibacterial activity against Staphylococcus aureus ATCC 43300 assessed as partial growth inhibition at high concentration measured after 18 hrs by two-fold serial dilution method relative to control; type: functional
Erythrocyte = experiment: Hemolytic activity in sheep RBC assessed as hemolysis incubated for 1 hr by absorbance based analysis; type: toxicity, cell-based, Ovis aries
Staphylococcus aureus [5] = experiment: Antibacterial activity against Staphylococcus aureus ATCC 33591 assessed as reduction in bacterial growth measured after 18 hrs by two-fold serial dilution method; type: functional
Staphylococcus aureus [6] = experiment: Antibacterial activity against Staphylococcus aureus ATCC 33591 assessed as partial growth inhibition at high concentration measured after 18 hrs by two-fold serial dilution method relative to control; type: functional

## CCOC(=O)C1=C(c2ccccc2)NC(N)=NC1c1c(C)cccc1C (configuration not stated)
Staphylococcus aureus [1]
  MIC: 32 µg/mL (≈ 91.6 µM)
Staphylococcus aureus [2]
  growth inhibition (GI): >95%
Staphylococcus aureus [3]
  MIC: 32 µg/mL (≈ 91.6 µM)
Staphylococcus aureus [4]
  growth inhibition (GI): >95%

## CCOC(=O)C1=C(c2cccc(C)c2)NC(N)=NC1c1cc(Cl)cc(Cl)c1 (configuration not stated)
Erythrocyte
  HC20: > 64 µg/mL

## CCOC(=O)C1=C(c2ccccc2)NC(N)=NC1c1ccc(F)cc1 (configuration not stated)
Staphylococcus aureus [1]
  MIC: 64 µg/mL (≈ 189 µM)
Staphylococcus aureus [2]
  growth inhibition (GI): >95%
Staphylococcus aureus [5]
  MIC: 64 µg/mL (≈ 189 µM)
Staphylococcus aureus [6]
  growth inhibition (GI): >95%
Staphylococcus aureus [3]
  MIC: 64 µg/mL (≈ 189 µM)
Staphylococcus aureus [4]
  growth inhibition (GI): >95%

## CCOC(=O)C1=C(c2ccccc2)NC(N)=NC1c1ccc(OC)cc1 (configuration not stated)
Staphylococcus aureus [1]
  MIC: 64 µg/mL (≈ 182 µM)
Staphylococcus aureus [2]
  growth inhibition (GI): >95%
Erythrocyte
  HC20: > 64 µg/mL

## CCOC(=O)C1=C(c2ccccc2)NC(N)=NC1c1cccc([N+](=O)[O-])c1 (configuration not stated)
Staphylococcus aureus [6]
  growth inhibition (GI): >95%
Staphylococcus aureus [4]
  growth inhibition (GI): >95%

## CCOC(=O)C1=C(c2ccccc2)NC(N)=NC1c1ccc(C)cc1C (configuration not stated)
Staphylococcus aureus [1]
  MIC: 32 µg/mL (≈ 91.6 µM)
Staphylococcus aureus [2]
  growth inhibition (GI): >95%
Staphylococcus aureus [5]
  MIC: 32 µg/mL (≈ 91.6 µM)
Staphylococcus aureus [6]
  growth inhibition (GI): >95%
Staphylococcus aureus [3]
  MIC: 32 µg/mL (≈ 91.6 µM)
Staphylococcus aureus [4]
  growth inhibition (GI): >95%

## CCOC(=O)C1=C(c2ccccc2)NC(N)=NC1c1ccccc1C (configuration not stated)
Staphylococcus aureus [1]
  MIC: 64 µg/mL (≈ 191 µM)
Staphylococcus aureus [2]
  growth inhibition (GI): >95%
Staphylococcus aureus [5]
  MIC: 64 µg/mL (≈ 191 µM)
Staphylococcus aureus [6]
  growth inhibition (GI): >95%
Staphylococcus aureus [3]
  MIC: 64 µg/mL (≈ 191 µM)
Staphylococcus aureus [4]
  growth inhibition (GI): >95%

## CCOC(=O)C1=C(c2cccc(F)c2)NC(N)=NC1c1ccc(CC(C)C)cc1 (configuration not stated)
Erythrocyte
  HC20: > 64 µg/mL

## CCOC(=O)C1=C(c2ccccc2)NC(N)=NC1c1ccc(C(C)C)cc1 (configuration not stated)
Staphylococcus aureus [2]
  growth inhibition (GI): >95%
Staphylococcus aureus [6]
  growth inhibition (GI): >95%
Staphylococcus aureus [4]
  growth inhibition (GI): >95%
Erythrocyte
  HC20: > 64 µg/mL

## CCOC(=O)C1=C(c2ccccc2)NC(N)=NC1c1ccc(-c2ccccc2)cc1 (configuration not stated)
Erythrocyte
  HC20: > 64 µg/mL

## CCOC(=O)C1=C(c2ccccc2)NC(N)=NC1c1ccc(CC(C)C)cc1 (configuration not stated)
Staphylococcus aureus [6]
  growth inhibition (GI): >95%
Erythrocyte
  HC20: > 64 µg/mL

## CCOC(=O)C1=C(c2ccccc2)NC(N)=NC1c1cccc(C)c1 (configuration not stated)
Staphylococcus aureus [1]
  MIC: 64 µg/mL (≈ 191 µM)
Staphylococcus aureus [2]
  growth inhibition (GI): >95%
Staphylococcus aureus [5]
  MIC: 64 µg/mL (≈ 191 µM)
Staphylococcus aureus [6]
  growth inhibition (GI): >95%
Staphylococcus aureus [3]
  MIC: 64 µg/mL (≈ 191 µM)
Staphylococcus aureus [4]
  growth inhibition (GI): >95%

## CCOC(=O)C1=C(CC)NC(N)=NC1c1ccc(-c2ccccc2)cc1 (configuration not stated)
Staphylococcus aureus [1]
  MIC: 4 µg/mL (≈ 11.4 µM)
Staphylococcus aureus [2]
  growth inhibition (GI): >95%
Staphylococcus aureus [3]
  MIC: 4 µg/mL (≈ 11.4 µM)
Staphylococcus aureus [4]
  growth inhibition (GI): >95%

## CCOC(=O)C1=C(c2cccc(C(F)(F)F)c2)NC(N)=NC1c1ccc(CC(C)C)cc1 (configuration not stated)
Erythrocyte
  HC20: 64 µg/mL

## GENTAMICIN
Staphylococcus aureus [1]
  MIC: 4 µg/mL
Staphylococcus aureus [5]
  MIC: 4 µg/mL
Staphylococcus aureus [3]
  MIC: 128 µg/mL

## CCOC(=O)C1=C(CC)NC(N)=NC1c1ccc(CC(C)C)cc1 (configuration not stated)
Staphylococcus aureus [2]
  growth inhibition (GI): >95%
Staphylococcus aureus [4]
  growth inhibition (GI): >95%
Erythrocyte
  HC20: > 64 µg/mL

## CCOC(=O)C1=C(c2ccccc2)NC(N)=NC1c1ccc(C)c(C)c1 (configuration not stated)
Staphylococcus aureus [2]
  growth inhibition (GI): >95%
Staphylococcus aureus [6]
  growth inhibition (GI): >95%

## CCOC(=O)C1=C(c2cccc(C(F)(F)F)c2)NC(N)=NC1c1cc(Cl)cc(Cl)c1 (configuration not stated)
Erythrocyte
  HC20: > 64 µg/mL

## CCOC(=O)C1=C(c2ccccc2)NC(N)=NC1c1ccc(N(C)C)cc1 (configuration not stated)
Staphylococcus aureus [1]
  MIC: 64 µg/mL (≈ 176 µM)
Staphylococcus aureus [2]
  growth inhibition (GI): >95%
Staphylococcus aureus [5]
  MIC: 64 µg/mL (≈ 176 µM)
Staphylococcus aureus [6]
  growth inhibition (GI): >95%
Staphylococcus aureus [3]
  MIC: 64 µg/mL (≈ 176 µM)
Staphylococcus aureus [4]
  growth inhibition (GI): >95%

## CCOC(=O)C1=C(c2ccccc2)NC(N)=NC1c1ccccc1 (configuration not stated)
Erythrocyte
  HC20: > 64 µg/mL

## COc1cc(Cc2cnc(N)nc2N)cc(OC)c1OC [TRIMETHOPRIM]
Staphylococcus aureus [1]
  MIC: 32 µg/mL (≈ 110 µM)
Staphylococcus aureus [2]
  growth inhibition (GI): >95%
Staphylococcus aureus [5]
  MIC: 8 µg/mL (≈ 27.6 µM)
Staphylococcus aureus [6]
  growth inhibition (GI): >95%
Staphylococcus aureus [3]
  MIC: 8 µg/mL (≈ 27.6 µM)
Staphylococcus aureus [4]
  growth inhibition (GI): >95%

## CCOC(=O)C1=C(c2ccccc2)NC(N)=NC1c1ccccc1OC (configuration not stated)
Erythrocyte
  HC20: > 64 µg/mL

## CCOC(=O)C1=C(c2ccccc2)NC(N)=NC1c1cccc(F)c1 (configuration not stated)
Staphylococcus aureus [1]
  MIC: 64 µg/mL (≈ 189 µM)
Staphylococcus aureus [2]
  growth inhibition (GI): >95%
Staphylococcus aureus [5]
  MIC: 64 µg/mL (≈ 189 µM)
Staphylococcus aureus [6]
  growth inhibition (GI): >95%
Staphylococcus aureus [3]
  MIC: 64 µg/mL (≈ 189 µM)
Staphylococcus aureus [4]
  growth inhibition (GI): >95%

## CCOC(=O)C1=C(c2cccc(F)c2)NC(N)=NC1c1cc(Cl)cc(Cl)c1 (configuration not stated)
Erythrocyte
  HC20: > 64 µg/mL

## CCOC(=O)C1=C(c2ccccc2)NC(N)=NC1c1cc(Cl)cc(Cl)c1 (configuration not stated)
Staphylococcus aureus [2]
  growth inhibition (GI): >95%
Staphylococcus aureus [6]
  growth inhibition (GI): >95%
Staphylococcus aureus [4]
  growth inhibition (GI): >95%
Erythrocyte
  HC20: > 64 µg/mL

## CCOC(=O)C1=C(c2ccccc2)NC(N)=NC1c1cccc(Cl)c1 (configuration not stated)
Erythrocyte
  HC20: > 64 µg/mL
